Test results published in US20130177921A1, “Detection of Damage to DNA” (priority 2010, published 2013).

How the values were obtained:
[1] = tested on: MCF7 human breast cancer cells; assay: Dox-induced DNA damage (AP sites) in MCF7 cells used as surrogate CTCs, extended DNA fibers; format: cell-based
Description: MCF7 cells were exposed to Doxorubicin (Dox) in culture (1) or exposed to Dox in culture and then processed using the Mag Sweeper Oft MCF7 cells processed identically but not treated with Dox served as controls in each case. Cells were next were recovered, put onto slides and lysed and DNA extended
MCF7 cells were exposed to Doxorubicin (Dox) alone (first three bars) or exposed to Dox first then isolated using Mag Sweeper (fourth, filth, sixth bars). Thereafter. DNA was extended on slides following cell lysis and DNA and sites of DNA damage were stained with fluorescent probes Images of extended fluorescently-labeled DNA fibers were obtained and DNA content and DNA damage site number were determined by computer analysis of the images. Results of the analysis of DNA damage in the bars is reported with the ordinate of the graph scaled as the number of DNA damage sites, in this case AP sites, per 10^6 nucleotides in length
In an initial study, MCF7 human breast cancer cells, a line of human breast adenocarcinoma, were used to simulated CTCs. The “simulated CTCs” were exposed to 0, 0.33, and 0.66 μM doxorubicin (Dox). Doxorubicin is a principal chemotherapeutic agent for breast cancer and the doses of the drug were chosen to approximate dose levels achieved in patients. In one experiment, untreated cells and cells treated with Dox were harvested 16 hours after starting sham or drug treatment and slides of extended DNA were prepared from the untreated and treated cells. The amount of DNA damage for each treatment condition was then determined. This experiment was designed to test whether drug exposure of the cells alone increased DNA damage in the form of abasic (AP) sites (FIG. 13, upper path). Next, untreated cells and cells treated with Dox were collected 16 hours after starting sham or drug treatment. The cells were subjected to a CTC isolation technique referred to as the ‘Mag Sweeper’ process (15) and the recovered cells' DNA harvested and placed on slides to extend the DNA and then the DNA analyzed for damage as described herein ([…], lower path).

[2] = tested on: DT40 cells; conditions: H2O2-treated versus untreated cells
Protocol: (§1) Avian DT40 cells (38, 39) were grown at 39.5° C., the normal Avian body temperature, in a humidified atmosphere supplemented with 5% CO2 as a suspension in RPMI-1640 (Invitrogen) supplemented with 10% fetal bovine serum (Sigma), 1% chicken serum (Sigma and Invitrogen), and containing 100 μg/ml penicillin and 100 μg/ml streptomycin (Invitrogen).

[3] = tested on: DT40 cells; conditions: cells exposed to 20 μM H2O2
Protocol: as §1
DNA was isolated from DT40 cells in normal culture conditions or DT40 cells experiencing oxidative stress and processed for slot-blot analysis as described previously (2).

[4] = tested on: DT40 cells
Protocol: Briefly, cells growing in culture were first labeled for 10 min in medium with 100 μM iododeoxyurine (IdU), and then centrifuged to remove the medium containing IdU. […] After exposure to the second halogenated nucleotide, the cells were harvested by centrifugation and resuspended in ice cold PBS at about 200 cells/μl.
For the detection of IdU and CIdU within the DNA fiber spreads, the slides were treated with 2.5 M HCl for 30 min, washed several times in PBS, and blocked in 3% bovine serum albumin in PBS for 60 min. […]
To determine the number of nt that had been replicated (i.e., incorporated IdU or CIdU) in normal culture conditions, the total amount of fluorescence from both IdU and CIdU was measured. The number of AP sites co-localized in areas where DNA had replicated was assessed using the co-localization function provided by Image J. In this series of experiments, AP sites were marked by blue signal and those that co-localized with areas undergoing replication were counted using the particle counter function of Image J. To determine the amount of replicating DNA expressed in nt, the total amount of red and green fluorescence (IdU and CIdU, respectively) was determined and then divided by fluorescence intensity per nt, as described above.
To determine the number of AP sites per unit length of DNA in areas undergoing replication, cells were first pulsed with IdU (a nucleotide precursor), and then pulsed with CIdU (a different precursor). […] Fluorescently labeled AP sites were readily detected and could be quantified with respect to the fluorescent tracks of IdU and CIdU labeled DNA (see Materials and Methods).

SMILES	DNA damage (AP sites) after Mag Sweeper isolation ([1]; 0.33 and 0.66 μM Dox, 16 hours, then cells processed with Mag Sweeper, versus untreated cells)	DNA damage (level of AP sites) ([1]; 0.33 and 0.66 μM Dox, harvested 16 hours after start, Dox alone, versus untreated cells)	dose dependence of DNA damage ([1]; 0.66 versus 0.33 μM Dox, with and without Mag Sweeper)	clustering of AP sites [2]	number of AP sites per 10^6 nt, slot blot analysis [3]	number of AP sites per 10^6 nt in CIdU tracks ([4]; replicating DNA labeled after H2O2 exposure (20 μM, FIG. 3))	number of AP sites per 10^6 nt in IdU tracks ([4]; replicating DNA labeled before H2O2 exposure (20 μM, FIG. 3))	increase of AP sites per 10^6 nt in replicating regions exposed to H2O2 ([4]; replicating regions versus global DNA, H2O2-exposed cells)
COc1cccc2c1C(=O)c1c(O)c3c(c(O)c1C2=O)C[C@@](O)(C(=O)CO)C[C@@H]3O[C@H]1C[C@H](N)[C@H](O)[C@H](C)O1 [Dox, Doxorubicin]	AP sites increased after Dox treatment	notably increased DNA damage	more damage detected with the higher dose					
OO [H2O2, hydrogen peroxide]				more common	7.7 AP sites per 10^6 nt	20.8 per 10^6 nt	12.9 per 10^6 nt	50 to 150%
